Assay results as given in patent publication US11834453B2, “Substituted pyrimido[5,4-d]pyrimidines as HER2 inhibitors” (Array BioPharma Inc., priority 2020, dated 2023).
Like-named read-outs stand apart in the source and are kept apart here.

Legend:
EGFR wild type (EGFR WT) = EGFR wild type (EGFR WT) (Homo sapiens (Human), UniProt P00533); assay: Cellular phosphorylation assay, EGF-stimulated EGFR phosphorylation in engineered NIH 3T3 cells, Phospho-EGFR DuoSet IC ELISA, Assay 5; assay type: cell-based
Outline: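 NIH 3T3 cells expressing EGFR WT (20,000/well, attached overnight) were exposed to serially diluted compound for 1 h at 37 °C, then stimulated with 100 ng/ml rEGF for 10 min. Phospho-EGFR in lysates measured by sandwich ELISA optical density; IC50 from curves.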

ErbB2 WT = ErbB2 WT (Homo sapiens (Human), UniProt P04626); assay: ErbB enzyme assay (CisBio HTRF KinEASE-TK), Assay 2; assay type: biochemical
Chain of ErbB2 WT (P04626 23-1255): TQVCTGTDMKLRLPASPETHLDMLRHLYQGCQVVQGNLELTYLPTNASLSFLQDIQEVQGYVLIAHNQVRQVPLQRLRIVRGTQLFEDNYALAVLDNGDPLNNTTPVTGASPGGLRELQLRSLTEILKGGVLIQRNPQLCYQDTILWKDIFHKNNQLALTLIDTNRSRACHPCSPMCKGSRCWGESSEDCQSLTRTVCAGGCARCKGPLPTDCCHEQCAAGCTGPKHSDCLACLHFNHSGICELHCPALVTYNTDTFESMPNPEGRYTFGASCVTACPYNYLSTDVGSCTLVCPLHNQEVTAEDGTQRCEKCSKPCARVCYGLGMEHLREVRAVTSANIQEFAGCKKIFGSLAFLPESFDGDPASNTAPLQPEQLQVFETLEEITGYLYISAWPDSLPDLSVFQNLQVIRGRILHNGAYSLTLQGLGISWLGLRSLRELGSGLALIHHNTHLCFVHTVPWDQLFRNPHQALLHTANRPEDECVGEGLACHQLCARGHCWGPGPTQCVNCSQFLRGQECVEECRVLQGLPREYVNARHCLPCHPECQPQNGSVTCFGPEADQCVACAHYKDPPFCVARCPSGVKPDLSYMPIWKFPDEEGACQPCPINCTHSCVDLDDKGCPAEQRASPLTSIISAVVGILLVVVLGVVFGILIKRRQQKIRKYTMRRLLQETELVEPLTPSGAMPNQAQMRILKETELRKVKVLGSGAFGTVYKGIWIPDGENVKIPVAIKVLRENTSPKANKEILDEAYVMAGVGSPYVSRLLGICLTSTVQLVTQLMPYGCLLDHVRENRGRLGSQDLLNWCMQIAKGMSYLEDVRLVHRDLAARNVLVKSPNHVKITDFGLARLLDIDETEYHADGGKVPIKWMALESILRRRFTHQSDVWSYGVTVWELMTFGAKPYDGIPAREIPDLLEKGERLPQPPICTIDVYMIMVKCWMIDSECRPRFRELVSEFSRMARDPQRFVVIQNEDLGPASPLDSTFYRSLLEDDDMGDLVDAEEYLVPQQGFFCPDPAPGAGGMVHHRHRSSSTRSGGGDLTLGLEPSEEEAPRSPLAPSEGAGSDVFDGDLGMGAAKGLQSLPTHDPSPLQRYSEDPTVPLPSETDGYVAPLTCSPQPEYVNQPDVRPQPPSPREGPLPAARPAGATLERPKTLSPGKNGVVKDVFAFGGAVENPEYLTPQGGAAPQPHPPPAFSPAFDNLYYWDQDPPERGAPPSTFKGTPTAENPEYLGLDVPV
Outline: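 ErbB2 phosphorylates 250 nM biotin-TK substrate at 1 mM ATP in 25 mM HEPES pH 7.4, 10 mM MgCl2, 0.01% Triton X-100 and 2% DMSO, for 30 min at 22 °C. Product is detected by HTRF with Sa-XL665 and TK-Ab-Cryptate. Percent of control is set by DMSO-only wells and pre-quenched wells.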

BCRP = BCRP (Homo sapiens (Human), UniProt Q9UNQ0); assay: BCRP transfected MDCKII canine Mdr1 knockout permeability/efflux, Assay 9; details: efflux ratio Papp(B-A)/Papp(A-B), BCRP transfected MDCKII canine Mdr1 knockout; for efflux ratio at 2 h, 1 μM: dog, Assay 9 Pe Ratio
Chain of BCRP (Q9UNQ0 whole entry): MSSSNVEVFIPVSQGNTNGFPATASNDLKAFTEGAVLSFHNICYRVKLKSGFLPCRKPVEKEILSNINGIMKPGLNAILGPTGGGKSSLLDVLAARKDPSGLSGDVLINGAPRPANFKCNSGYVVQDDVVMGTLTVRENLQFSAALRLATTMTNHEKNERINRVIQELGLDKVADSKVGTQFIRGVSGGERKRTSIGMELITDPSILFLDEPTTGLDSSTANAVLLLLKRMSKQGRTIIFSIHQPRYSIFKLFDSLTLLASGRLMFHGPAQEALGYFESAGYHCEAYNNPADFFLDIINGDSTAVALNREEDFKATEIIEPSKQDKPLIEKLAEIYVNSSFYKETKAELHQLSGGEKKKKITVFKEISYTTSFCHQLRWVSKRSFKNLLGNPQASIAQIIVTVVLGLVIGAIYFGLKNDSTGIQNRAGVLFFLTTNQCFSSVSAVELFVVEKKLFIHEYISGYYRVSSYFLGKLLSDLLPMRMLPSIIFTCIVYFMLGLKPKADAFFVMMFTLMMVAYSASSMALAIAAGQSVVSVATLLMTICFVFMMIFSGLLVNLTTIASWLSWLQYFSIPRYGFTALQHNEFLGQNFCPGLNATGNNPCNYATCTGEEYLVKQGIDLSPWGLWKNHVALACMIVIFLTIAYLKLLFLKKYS

[1] = biological target: ErbB2 insYVMA (HER2-YVMA, SEQ ID NO: 2) (Homo sapiens, UniProt P04626, INS775YVMA/P1170A); assay: biochemical; details: ErbB2 insYVMA enzyme assay
Chain of ErbB2 insYVMA (HER2-YVMA, SEQ ID NO: 2) (P04626 with tags, fused parts or gaps INS775YVMA/P1170A limits assumed): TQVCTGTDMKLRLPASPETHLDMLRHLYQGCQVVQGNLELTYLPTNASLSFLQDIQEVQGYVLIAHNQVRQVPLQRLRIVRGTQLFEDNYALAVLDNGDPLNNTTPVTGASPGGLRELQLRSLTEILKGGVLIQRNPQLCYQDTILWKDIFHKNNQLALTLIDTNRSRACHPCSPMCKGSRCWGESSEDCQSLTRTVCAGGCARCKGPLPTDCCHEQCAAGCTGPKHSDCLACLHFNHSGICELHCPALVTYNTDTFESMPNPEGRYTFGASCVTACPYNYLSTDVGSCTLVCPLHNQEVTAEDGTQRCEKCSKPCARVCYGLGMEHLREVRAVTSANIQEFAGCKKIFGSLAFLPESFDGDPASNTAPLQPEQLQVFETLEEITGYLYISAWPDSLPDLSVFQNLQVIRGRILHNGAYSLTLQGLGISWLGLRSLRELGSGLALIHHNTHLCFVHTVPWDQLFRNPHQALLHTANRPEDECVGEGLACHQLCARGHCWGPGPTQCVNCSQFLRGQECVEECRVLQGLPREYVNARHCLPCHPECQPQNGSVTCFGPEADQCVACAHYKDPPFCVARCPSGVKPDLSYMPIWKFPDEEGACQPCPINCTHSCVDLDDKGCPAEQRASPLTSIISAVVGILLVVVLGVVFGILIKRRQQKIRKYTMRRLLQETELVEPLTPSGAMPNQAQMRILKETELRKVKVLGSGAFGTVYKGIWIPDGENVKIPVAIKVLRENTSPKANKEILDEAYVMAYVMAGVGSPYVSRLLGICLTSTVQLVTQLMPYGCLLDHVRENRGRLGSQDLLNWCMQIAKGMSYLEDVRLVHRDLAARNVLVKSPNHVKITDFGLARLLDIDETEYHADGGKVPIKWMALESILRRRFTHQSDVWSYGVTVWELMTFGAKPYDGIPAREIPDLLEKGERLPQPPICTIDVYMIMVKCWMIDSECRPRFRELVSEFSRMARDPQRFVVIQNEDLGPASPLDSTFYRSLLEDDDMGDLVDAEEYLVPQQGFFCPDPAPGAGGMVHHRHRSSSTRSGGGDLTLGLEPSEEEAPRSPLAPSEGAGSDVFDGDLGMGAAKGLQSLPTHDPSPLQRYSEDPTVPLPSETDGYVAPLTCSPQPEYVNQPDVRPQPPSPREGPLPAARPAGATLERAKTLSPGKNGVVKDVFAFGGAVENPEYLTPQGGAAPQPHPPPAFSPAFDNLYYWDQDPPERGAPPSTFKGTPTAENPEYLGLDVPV

EGFR = EGFR (Homo sapiens (Human), UniProt P00533); assay: ErbB enzyme assay (CisBio HTRF KinEASE-TK), Assay 3; assay type: biochemical
Outline: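 Kinase incubated 30 min at 22 °C with 250 nM biotinylated TK substrate, 1 mM ATP and serially diluted compound in 25 mM HEPES pH 7.4, 10 mM MgCl2, 0.01% Triton X-100, 2% DMSO. Phosphorylation read by HTRF (Sa-XL665/TK-Ab-Cryptate); IC50 from 4-parameter fit of percent of control.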

[2] = biological target: ErbB2 with Exon 20 YVMA insertion (HER2-YVMA) (Homo sapiens (Human), UniProt P04626, INS775YVMA); assay: Cellular phosphorylation assay, constitutive ErbB2 phosphorylation (Y1196) in engineered NIH 3T3 cells, Assay 4; assay type: cell-based
Outline: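 Engineered NIH 3T3 cells expressing HER2-YVMA treated with compounds 1 h at 37 °C, then formaldehyde-fixed and methanol-permeabilized. pErbB2 Y1196 detected by in-cell infrared immunofluorescence, normalized to GAPDH. IC50 from the normalized curves.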

MDR1 (P-gp) = MDR1 (P-gp) (Homo sapiens (Human), UniProt P08183); assay: MDR1 transfected LLC-PK1 permeability/efflux, Assay 6; details: efflux ratio Papp(B-A)/Papp(A-B), MDR1 transfected LLC-PK1; for efflux ratio at 2 h, 1 μM: pig, LLC-PK1, Assay 6 Pe Ratio
Chain of MDR1 (P-gp) (P08183 whole entry): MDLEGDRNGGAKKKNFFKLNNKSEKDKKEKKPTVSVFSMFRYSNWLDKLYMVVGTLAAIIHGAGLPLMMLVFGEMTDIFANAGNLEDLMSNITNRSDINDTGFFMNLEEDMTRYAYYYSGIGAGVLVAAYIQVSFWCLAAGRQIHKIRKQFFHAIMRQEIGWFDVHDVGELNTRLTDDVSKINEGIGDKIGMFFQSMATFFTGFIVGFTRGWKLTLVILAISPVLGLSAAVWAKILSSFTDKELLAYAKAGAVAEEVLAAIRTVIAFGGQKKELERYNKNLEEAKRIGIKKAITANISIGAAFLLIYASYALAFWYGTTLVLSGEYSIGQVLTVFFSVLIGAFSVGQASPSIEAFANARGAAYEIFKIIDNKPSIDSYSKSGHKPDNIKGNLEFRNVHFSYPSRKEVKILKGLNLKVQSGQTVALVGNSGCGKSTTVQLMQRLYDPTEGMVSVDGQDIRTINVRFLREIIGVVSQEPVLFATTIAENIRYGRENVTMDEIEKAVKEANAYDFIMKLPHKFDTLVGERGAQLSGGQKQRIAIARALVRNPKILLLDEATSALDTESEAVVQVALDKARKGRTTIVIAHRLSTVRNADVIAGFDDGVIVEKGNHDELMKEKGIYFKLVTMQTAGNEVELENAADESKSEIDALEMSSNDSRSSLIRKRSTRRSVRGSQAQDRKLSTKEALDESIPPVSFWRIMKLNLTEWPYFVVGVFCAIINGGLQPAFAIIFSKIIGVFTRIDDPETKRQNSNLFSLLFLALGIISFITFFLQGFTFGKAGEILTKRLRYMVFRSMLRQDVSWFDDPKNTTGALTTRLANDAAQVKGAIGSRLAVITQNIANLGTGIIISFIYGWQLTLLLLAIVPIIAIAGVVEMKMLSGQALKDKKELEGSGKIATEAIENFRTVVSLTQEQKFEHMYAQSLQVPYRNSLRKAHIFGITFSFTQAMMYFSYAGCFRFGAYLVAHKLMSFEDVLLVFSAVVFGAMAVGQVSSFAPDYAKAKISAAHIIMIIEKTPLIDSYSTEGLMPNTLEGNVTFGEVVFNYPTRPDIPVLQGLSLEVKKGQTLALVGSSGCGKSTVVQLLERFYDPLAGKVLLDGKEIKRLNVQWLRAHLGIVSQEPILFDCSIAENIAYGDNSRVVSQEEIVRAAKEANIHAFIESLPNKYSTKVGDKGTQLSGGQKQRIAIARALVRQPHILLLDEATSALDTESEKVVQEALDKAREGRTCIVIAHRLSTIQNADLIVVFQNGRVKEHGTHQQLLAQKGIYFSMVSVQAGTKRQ

| Compound | IC50 (EGFR wild type (EGFR WT)) [nM] | IC50 (ErbB2 WT) [nM] | efflux ratio at 2 h, 1 μM (BCRP) | IC50 ([1]; read-out: Assay 1 IC50) [nM] | IC50 (EGFR) [nM] | IC50 [2] [nM] | efflux ratio at 2 h, 1 μM (MDR1 (P-gp)) | IC50 ([1]; Assay 1 IC50 (nM)) [nM] | Assay 9 Pe Ratio (BCRP) | Assay 6 Pe Ratio (MDR1 (P-gp)) |
| --- | --- | --- | --- | --- | --- | --- | --- | --- | --- | --- |
| Cc1cc(Nc2ncnc3cnc(N(C)C4CC4)nc23)ccc1Oc1ccc2c(c1)ncn2C [Example 31, N2-cyclopropyl-N2-methyl-N8-(3-methyl-4-((1-methyl-1H-benzo[d]imidazol-5-yl)oxy)phenyl)pyrimido[5,4-d]pyrimidine-2,8-diamine] | ≥ 5000 | 158 | 1.4 | 117 | ≥ 10000 | 23.3 | 1.3 |  |  |  |
| Cc1cc(Nc2ncnc3cnc(N4CCOCC4)nc23)ccc1Oc1cc(F)c2c(c1)ncn2C.O=C(O)C(F)(F)F [Example 70, N-(4-((7-fluoro-1-methyl-1H-benzo[d]imidazol-5-yl)oxy)-3-methylphenyl)-6-morpholinopyrimido[5,4-d]pyrimidin-4-amine 2,2,2-trifluoroacetate] | ≥ 5000 | 70.3 | 1 |  | ≥ 10000 | 4.9 | 1.8 | 106 |  |  |
| Cc1cc(Nc2ncnc3cnc(N(C)CC4CCO4)nc23)ccc1Oc1ccc2c(c1)ncn2C (stereo not drawn) [Example 350] | ≥ 5000 | 83.9 | 3.5 | 40 | ≥ 10000 | 26.3 | 1.9 |  |  |  |
| Cc1cc(Nc2ncnc3cnc(N4CCO[C@H]5C[C@H]54)nc23)ccc1Oc1ccc2c(c1)ncn2C (single isomer, unassigned) [Example 60a] | ≥ 5000 | 28.9 | 1.2 | 18.4 | 8280 | 16 | 1.8 |  |  |  |
| Cc1cc(Nc2ncnc3cnc(N4CCC[C@H]4C(F)(F)F)nc23)ccc1Oc1ccc2c(c1)ncn2C [Example 249] | ≥ 5000 | 23.4 | 3 | 35.9 | ≥ 10000 | 37.4 | 0.3 |  |  |  |
| Cc1cc(Nc2ncnc3cnc(N4CCO[C@H]5C[C@H]54)nc23)ccc1Oc1ccc2c(c1)ncn2C (single isomer, unassigned) [Example 60b] | ≥ 5000 | 18.7 |  | 16.1 | 5680 | 17.9 |  |  | 1.4 | 1.9 |
| Cc1cc(Nc2ncnc3cnc(N4CCOC(C)(C)C4)nc23)ccc1Oc1ccc2c(c1)ncn2C [Example 272] | ≥ 5000 | 104 | 0.6 | 67.3 | 9000 | 40.2 | 1.6 |  |  |  |
| Cc1cc(Nc2ncnc3cnc(N4CCO[C@@H]5C[C@@H]54)nc23)ccc1Oc1ccc2c(c1)ncn2C [Example 199, 6-((1R,6S)-2-oxa-5-azabicyclo[4.1.0]heptan-5-yl)-N-(3-methyl-4-((1-methyl-1H-benzo[d]imidazol-5-yl)oxy)phenyl)pyrimido[5,4-d]pyrimidin-4-amine] | ≥ 5000 |  | 1.4 | 16.1 | 5680 | 17.9 | 1.9 |  |  |  |
| Cc1cc(Nc2ncnc3cnc(N4C5CCC4COC5)nc23)ccc1Oc1ccc2c(c1)ncn2C [Example 59, 6-(3-oxa-8-azabicyclo[3.2.1]octan-8-yl)-N-(3-methyl-4-((1-methyl-1H-benzo[d]imidazol-5-yl)oxy)phenyl)pyrimido[5,4-d]pyrimidin-4-amine] | ≥ 5000 | 44.3 | 7.4 | 29.7 | ≥ 10000 | 23.5 | 2 |  |  |  |
| Cc1cc(Nc2ncnc3cnc(-c4cnsc4)nc23)ccc1Oc1ccc2c(c1)ncn2C [Example 228] | ≥ 5000 | 272 | 1 | 115 | ≥ 10000 | 24.2 | 1.1 |  |  |  |
| Cc1cc(Nc2ncnc3cnc(N4CCCC4)nc23)ccc1Oc1ccc2c(c1)ncn2C [Example 222] | ≥ 5000 | 41.2 | 1.6 | 34.4 | ≥ 10000 | 38.9 | 1 |  |  |  |
| Cc1cc(Nc2ncnc3cnc(-c4cccnc4)nc23)ccc1Oc1ccc2c(c1)ncn2C [Example 233] | ≥ 5000 | 41.5 | 1.6 | 27.5 | 3740 | 15.7 | 1.5 |  |  |  |
| Cc1cc(Nc2ncnc3cnc(N(C)CC(C)(C)O)nc23)ccc1Oc1ccc2c(c1)ncn2C [Example 163, 2-methyl-1-(methyl(8-((3-methyl-4-((1-methyl-1H-benzo[d]imidazol-5-yl)oxy)phenyl)amino)pyrimido[5,4-d]pyrimidin-2-yl)amino)propan-2-ol] | ≥ 5000 | 36.8 | 2.7 | 28.2 | 4480 | 21.6 | 1.8 |  |  |  |
| Cc1cc(Nc2ncnc3cnc(N4CC[C@H](C(F)F)C4)nc23)ccc1Oc1ccc2c(c1)ncn2C [Example 252] | ≥ 5000 | 242 | 2.6 | 92.9 | ≥ 10000 | 25.7 | 0.7 |  |  |  |
| Cc1cc(Nc2ncnc3cnc(N(C)CC(F)F)nc23)ccc1Oc1ccc2c(c1)ncn2C [Example 57, N2-(2,2-difluoroethyl)-N2-methyl-N8-(3-methyl-4-((1-methyl-1H-benzo[d]imidazol-5-yl)oxy)phenyl)pyrimido[5,4-d]pyrimidine-2,8-diamine] | ≥ 5000 | 37.7 | 1.4 | 30.2 | 6630 | 9.4 | 1.1 |  |  |  |
| Cc1cc(Nc2ncnc3cnc(N4CC5CC4CO5)nc23)ccc1Oc1ccc2c(c1)ncn2C.O=C(O)C(F)(F)F (stereo not drawn) [Example 77, 6-(2-oxa-5-azabicyclo[2.2.1]heptan-5-yl)-N-(3-methyl-4-((1-methyl-1H-benzo[d]imidazol-5-yl)oxy)phenyl)pyrimido[5,4-d]pyrimidin-4-amine 2,2,2-trifluoroacetate] | ≥ 5000 | 48.9 | 1.9 |  | ≥ 10000 | 17.2 | 1.7 | 26 |  |  |
| Cc1cc(Nc2ncnc3cnc(N4CC5C6CCC(O6)C5C4)nc23)ccc1Oc1ccc2c(c1)ncn2C (stereo not drawn) [Example 16, N-(3-methyl-4-((1-methyl-1H-benzo[d]imidazol-5-yl)oxy)phenyl)-6-(octahydro-2H-4,7-epoxyisoindol-2-yl)pyrimido[5,4-d]pyrimidin-4-amine] | ≥ 5000 |  | 1.8 | 26 | ≥ 10000 | 15.2 | 1.2 |  |  |  |
| Cc1cc(Nc2ncnc3cnc(N4C[C@@H](C)O[C@@H](C)C4)nc23)ccc1Oc1ccc2c(c1)ncn2C [Example 25, 6-((2S,6R)-2,6-dimethylmorpholino)-N-(3-methyl-4-((1-methyl-1H-benzo[d]imidazol-5-yl)oxy)phenyl)pyrimido[5,4-d]pyrimidin-4-amine] |  | 329 | 1.4 | 172 | ≥ 10000 | 53.4 | 1.7 |  |  |  |
